Common to all, as to format: binding
Experiment [1] concerns the target T1, oligomeric beta amyloid 1-42 (globulomer) (Homo sapiens, UniProt P05067).
T1 construct: beta amyloid (1-42) was monomerized with incubation in hexafluoroisopropanol
As to the kind of experiment: Misfolded Protein Assay: capture of globulomer spiked into CSF (Example 2). As for the experimental part:
To assess the ability of these reagents to capture protein aggregates, the previously described Misfolded Protein Assay or MPA (Lau et al., 2007, PNAS, 104: 11551) was used (FIG. 3). In this assay, the capture reagent of interest is attached to beads which are incubated with a sample of interest containing a mixture of normal monomeric and aggregated proteins to allow for capture and then washed to remove unbound material. After this enrichment step, an elution buffer is used to dissociate the captured material from the beads as well as to denature any aggregates. The eluted material is then applied to a sandwich ELISA that is specific for the protein of interest. Strong aggregate-binding reagents acting as effective capture reagents show a high signal from the sample containing a mixture of monomers and aggregates, but not from the control sample, which contains only physiologic levels of monomeric protein.
Beads displaying carboxylic acids were treated with EDC and BMPH to create maleimide-displaying beads, to which thiolated peptides (or other thiolated organic molecules) were added through a Michael addition reaction. Dynal M270 magnetized beads (30 mg/mL bead) displaying carboxylic acids were vortexed and placed into a 15 ml falcon tube. The tube was placed into a magnet, and the supernatant removed. The beads were washed 2 times with 0.1 M MES buffer, pH 5, and then the washing buffer was removed. The coupling solution (33 mM BMPH, 130 mM EDC in MES buffer) was added, and the tube was rocked for 30 minutes at room temperature. After washing in 1×MES, 1× Tris, pH 7.5, the beads were quenched with Tris buffer (50 mM Tris buffer, pH 7.5) for 15 minutes. The beads were then washed 2 times in phosphate buffer and added to 5 mM thiolated ligand in degassed phosphate. The beads were rotated for 21 hours, then washed in 0.1 M phosphate buffer, pH 7, 1×PBS, and stored.
To prepare the globulomer, beta amyloid (1-42) was monomerized with incubation in hexafluoroisopropanol. The hexafluoroisopropanol was removed by vacuum centrifugation. DMSO, PBS, and 2% SDS were then added to the sample. The sample was vortexed and sonicated and then incubated at 37° C. After 6 hours, the sample was diluted with water, vortexed, and incubated at 37° C. for an additional 19 hours. The sample was ultracentrifuged at 135000×g for 1 hour at 4° C., and the supernatant retained. The globulomers were spiked into CSF for the assay.
Aliquots of beads conjugated to various reagents were added to wells of a 96-well plate. Globulomer-spiked CSF in a Tris buffer was added to each well, and the plates were incubated for 1 hour at 37° C. with shaking. For the negative control, normal CSF was used, which is considered to contain only monomers of beta amyloid. The beads were washed with TBST wash buffer, and bound materials were eluted with a denaturing solution (typically 0.1-0.15 N NaOH). A reconditioning buffer was added to the eluate prior to beta amyloid detection via a beta amyloid (1-42) specific sandwich ELISA.
In order to determine the amount of ligand loading, amine quanitation was used. Aliquots of beads were placed in a magnet, and the supernatant removed. 80% phenol in ethanol, 0.2 mM KCN in pyridine/water, and 6% ninhydrin in ethanol was added to each tube. The aliquots were vortexed and heated for 7 minutes at 100° C. After cooling to room temperature, 60% ethanol was added. The tubes were placed in a magnet, and the absorbance of the supernatant at 570 nm was determined. The loading of the beads was determined according to Beer's law, using the extinction coefficient of 15000 M-1 cm-1.
Beads (3 ul or 15 ul) were added to samples containing 0.5 ng/mL globulomer spiked into CSF. […] For PSR1, this limit was ˜5 nmol ligand/mg bead for binding preferentially to globulomer. […]

A further experiment concerns the target T2, Aβ42 Globulomer (Homo sapiens, UniProt P05067).
T2 construct: beta amyloid (1-42) was monomerized with incubation in hexafluoroisopropanol
Kind of experiment: Misfolded Protein Assay, LoD and capture in CSF: globulomer. As to conditions: for LoD: spiked into CSF. As to the method:
The Ab42 aggregates were prepared as previously described: fibrils were prepared per Stine et al (JBC 2003, 278, p11612), globulomers were prepared per Barghorn et al (J Neurology 2005 95 p834), ADDLs were prepared per Lambert et al (PNAS 1998, 95 p6448), and ASPDs were prepared per Noguchi et al (JBC 2009 284 p32895). Normal CSF was pooled from clinically characterized non-demented patient CSF samples. AD CSF was pooled from clinically-characterized AD patient samples. Alzheimer's Disease Brain Homogenate (ADBH) was prepared by sonication of clinically diagnosed AD patient brain samples in 0.2M.sucrose (1:10 w/v).
For the capture assay (Misfolded Protein Assay), aliquots of the beads (30 ul) were added to wells of a 96 well plate, followed by 125 ul of sample in 80:20 CSF:TBSTT. The plate was sealed and incubated for 1 h at 37 C with shaking. The plate was washed with TBST and the residual buffer removed. A denaturing solution (0.1 N NaOH) was added to each well and the plate heated to 80 C. for 30 min with shaking. After cooling the plate to RT, a neutralizing buffer (0.12 M NaH2PO3-0.4% TW20,) was added and the plate shaken briefly at RT. The assay was analyzed using the triplex Mesoscale Discovery ELISA kit for Aβ. The Aβ in the samples eluted from the beads were detected per the manufacturer's protocol.
For the Limit of Detection (LoD) studies, serial dilutions of each aggregate were spiked into CSF and were assayed per the protocol described above. The LoD was defined as 2× over background levels.
This pattern minors the capture selectivity observed when these species are tested with 3 ul of PSR1 beads and 1 ng/mL of aggregate.

The target in experiment [2] is T1, oligomeric beta amyloid 1-42 (globulomer). As to the kind of experiment: Misfolded Protein Assay: capture of globulomer spiked into CSF (Example 2). As to conditions: conjugated to cellulose membrane; loading approximately 100× higher than on beads.

Several values for one entry are separate records, joined by “and”; a condition that tells them apart may be missing. Equal entries are not always repeated.

T1 sequence (P05067 672-713 limits assumed): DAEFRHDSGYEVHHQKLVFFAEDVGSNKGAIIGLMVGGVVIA
T2 sequence (P05067 672-713 limits assumed): as above

As for Nab-Nab-Nab-Nbn-Nab-Nbn [PSR1], the “minimum density required for oligomer capture” value was “roughly 6000 nmol positive charges/m^2” in experiment [1] (0.5 ng/mL globulomer in CSF, assuming all amines protonated at pH 7.4); “approximately 1500 nmol ligand/m^2” in experiment [1] (0.5 ng/mL globulomer in CSF, from 2-5 m^2 surface area per gram bead); ~5 nmol ligand/mg bead in experiment [1] (0.5 ng/mL globulomer spiked into CSF, 3 ul or 15 ul beads). For the same substance, the “capture of oligomers (relative light units from the Abeta ELISA)” value in experiment [1] (globulomer-spiked CSF vs normal CSF, reagent on Dynal M270 beads) is “capable of enriching oligomers”. In addition, the “sensitivity and specificity for globulomers” value in experiment [1] (native vs denatured globulomer in CSF, directly conjugated beads vs streptavidin beads with biotin-PSR1) was “higher sensitivity and specificity for globulomers”. Besides, the “capture of Globulomer” value at Aβ42 Globulomer (3 ul of beads and 1 ng/mL of aggregate) is 1267. In addition, the LoD at Aβ42 Globulomer was ~140 amol; on Aβ42 Globulomer (LoD = 2× over background), ~75 pg/mL and 75 pg/mL. For the same substance, the “ability to bind preferentially to oligomers in solution” value in experiment [2] is reported as “continued to increase the ability of PSR1 to bind preferentially to oligomers in solution”.

For the origin of these results see patent US20130109581A1, “POSITIVELY CHARGED SPECIES AS BINDING REAGENTS IN THE SEPARATION OF PROTEIN AGGREGATES FROM MONOMERS” (priority 2009, published 2013).
